Measurements reported in ChEMBL document CHEMBL1165939, “A structure-activity relationship study elucidating the mechanism of sequence-specific collagen recognition by the chaperone HSP47” (Bioorg Med Chem, 2010).

Target: T1, Serpin H1 (Mus musculus, UniProt P19324)
T1 sequence (P19324 whole entry): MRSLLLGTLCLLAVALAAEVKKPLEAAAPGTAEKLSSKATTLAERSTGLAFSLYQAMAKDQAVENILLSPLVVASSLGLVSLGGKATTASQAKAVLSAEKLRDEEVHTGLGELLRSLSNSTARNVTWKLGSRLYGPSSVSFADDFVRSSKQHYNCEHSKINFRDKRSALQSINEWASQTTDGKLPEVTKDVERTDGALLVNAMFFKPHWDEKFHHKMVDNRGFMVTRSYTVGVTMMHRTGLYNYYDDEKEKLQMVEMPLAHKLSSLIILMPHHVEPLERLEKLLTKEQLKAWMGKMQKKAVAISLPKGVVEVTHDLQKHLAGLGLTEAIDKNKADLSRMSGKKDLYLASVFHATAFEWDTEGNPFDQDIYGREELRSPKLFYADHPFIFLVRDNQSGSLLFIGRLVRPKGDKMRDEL
Assay: Binding affinity to mouse recombinant HSP47 expressed in Escherichia coli JM109 after 10 mins by surface plasmon resonance assay

N=C(N)NCCC[C@H](NC(=O)[C@@H]1CCCN1C(=O)CNC(=O)[C@H](CCC(=O)O)NC(=O)[C@@H]1CCCN1C(=O)CNC(=O)[C@@H]1CCCN1C(=O)[C@@H]1CCCN1C(=O)CNC(=O)[C@@H]1C[C@@H](O)CN1C(=O)[C@@H]1CCCN1)C(=O)NCC(=O)N1CCC[C@H]1C(=O)N[C@@H](CCCNC(=N)N)C(=O)NCC(=O)N1CCC[C@H]1C(=O)N1CCC[C@H]1C(=O)NCC(=O)N1CCC[C@H]1C(=O)N1CCC[C@H]1C(=O)NCC(=O)N1CCC[C@H]1C(=O)N1CCC[C@H]1C(=O)NCC(=O)N1CCC[C@H]1C(=O)N1CCC[C@H]1C(=O)NCC(N)=O
IC50: > 100 µM
